# Experimental data published in patent US10806743B1, “Method of administering lactitol to reduce plasma concentration of lactitol” (Braintree Laboratories, Inc., priority 2017, dated 2020).
# Assays:
# [1] = chronic idiopathic constipation; cited from earlier work
# [2] = estimated; cited from earlier work
# [3] = Adverse events in Phase 3 constipation studies; assay type: in vivo, human; conditions: Phase 3 studies, doses required for effective treatment of constipation
# Excerpt: An Adverse Event (AE) is any untoward medical occurrence associated with the use of a drug in humans, whether or not considered drug related. An AE can therefore be any unfavorable and unintended sign (including a clinically significant abnormal laboratory finding), symptom, or disease temporally associated with the use of a medicinal (investigational) product.
# These adverse reactions were transient and subsided rapidly upon dose adjustment or cessation.
# [4] = Fed v. fasted administration of lactitol: plasma lactitol pharmacokinetics (LC-MS/MS); assay type: in vivo, human
# Experimental: A study was performed to determine the effects of food on absorption of lactitol. Sixteen subjects (8 males and 8 females) were randomized to either Sequence A (fed/fasted) and the other half to Sequence B (fasted/fed) on Day 1 prior to dosing. Subjects returned for Day 8 dosing, 7 days following dose at Day 1, to receive study drug following the opposite food sequence, have pharmacokinetic samples collected and safety procedures performed. A standard dinner was served approximately 6 hours following dose on Day 1 or Day 8. A nighttime snack was permitted, and a standard breakfast and lunch were served prior to discharge from the clinic.
# No food was allowed prior to dosing; water was consumed up to one hour before dosing and then only after one hour after dosing. Subjects assigned to Sequence A (fed/fasted) received a high-calorie and high-fat meal for lunch at 11:30 AM, as described in Table 1. Subjects receiving the high fat high calorie lunch completed the meal within 30 minutes. Dose was administered 30 minutes after the start of the meal. Subjects assigned to Sequence B (fasted/fed) continued to fast prior to dose. The staff mixed the contents of two (2) packets (approximately 21 g) with 8 oz of water. Subjects consumed the dose over 5 to 10 minutes.
# Doses were administered 30 minutes after the start of the meal. Subjects assigned to Sequence B (fasted/fed) continued to fast prior to dose. The CRU mixed the contents of two (2) packets (approximately 21 g) with 8 oz of water. Subjects consumed the dose over 5 to 10 minutes.
# A high-fat (approximately 50 percent of total caloric content of the meal) and high-calorie (approximately 800 to 1000 calories) meal was used. Blood samples were collected prior to dosing and at 10, 20, 30 and 60 minutes (within +/−3 minutes) and then at 2, 4, 6, 8, 10, 12, 16, 18, 20 and 24 hours (within +/−30 minutes) following dose.
# An LC-MS/MS method for the determination of lactitol concentrations in human plasma has been successfully developed and validated. The calibration range of the method is 25.0 to 10,000 ng/ml for lactitol using a 50 μl sample aliquot.
# [5] = system: calcium absorption; conditions: rats, diet containing 5% lactitol, two weeks; cited from earlier work
# [6] = system: plasma glucose; conditions: 25 grams, eight healthy male volunteers; cited from earlier work
SMILES,"incidence of most common adverse reactions (nausea, diarrhea, headache, abdominal pain, abdominal distention, flatulence) [1] [%]",fraction of an oral dose excreted in urine [2] [%],adverse events associated with administration [3],"% CV values for λz and λ1/2, fasted v. fed ([4]; fasted and fed conditions)",time of peak plasma concentration ([4]; fasted population) [h],"peak plasma concentration of lactitol ([4]; fasted population, approx. 21 g oral dose) [ng/mL]","average plasma concentration of lactitol ([4]; fasted population, hour 1, approx. 21 g oral dose) [ng/mL]","plasma concentration of lactitol ([4]; fasted population, hour 8) [ng/mL]","plasma concentration of lactitol ([4]; fasted population, hour 12 post-dose) [ng/mL]","plasma concentration of lactitol remained above ([4]; fasted population, until hour 8)",time of peak plasma concentration ([4]; fed population) [h],"peak plasma concentration of lactitol ([4]; fed population (dose 30 minutes after start of high-fat, high-calorie meal)) [ng/mL]","plasma concentration of lactitol ([4]; fed population, hour 8) [ng/mL]","plasma concentration of lactitol ([4]; fed population, hour 12 post-dose) [ng/mL]","AUC, fed population smaller than fasted population ([4]; fed v. fasted) [times]","peak concentration, fed compared with fasted population ([4]; fed v. fasted)",calcium absorption [5],rise in plasma glucose after ingestion [6]
CCCCC(F)(F)[C@@]1(O)CC[C@H]2[C@@H](CC(=O)[C@@H]2CCCCCCC(=O)O)O1 [Lubiprostone],> 4,,,,,,,,,,,,,,,,,
OC[C@@H](O)[C@@H](O[C@@H]1O[C@H](CO)[C@H](O)[C@H](O)[C@H]1O)[C@H](O)[C@@H](O)CO [lactitol],,0.6,"flatulence, nausea, vomiting, abdominal cramping or pain and bloating",similar,4,2412,1193,935,218,above 1000 ng/mL,4,738.25,387.93,124.16,10,more than three times smaller,significant increase,no rise in plasma glucose
